Source: PMC6801739, “Antitumor Activity of a Novel Tyrosine Kinase Inhibitor AIU2001 Due to Abrogation of the DNA Damage Repair in Non-Small Cell Lung Cancer Cells” (International Journal of Molecular Sciences, 2019)

Experiments:
[1] = target: T1, EGFR (Homo sapiens, UniProt P00533); experiment: Kinase profiling at 10 μM (Eurofins); format: biochemical; conditions: read-out: Inhibitory activity
T1 construct: purchased Eurofins Pharma Discovery (KinaseProfiler); IC50 values by Reaction Biology Corp

[2] = target: T2, TGFBR1 (Homo sapiens, UniProt P36897); experiment: Kinase profiling at 10 μM (Eurofins); format: biochemical; conditions: read-out: Inhibitory activity
T2 construct: purchased Eurofins Pharma Discovery (KinaseProfiler); IC50 values by Reaction Biology Corp

[3] = target: T3, c-KIT (V560G) (Homo sapiens, UniProt P10721, V560G); experiment: Kinase profiling at 10 μM (Eurofins); format: biochemical; conditions: read-out: Inhibitory activity
T3 construct: purchased Eurofins Pharma Discovery (KinaseProfiler); IC50 values by Reaction Biology Corp

[4] = target: T4, MEK1 (Homo sapiens, UniProt Q02750); experiment: Kinase profiling at 10 μM (Eurofins); format: biochemical; conditions: read-out: Inhibitory activity
T4 construct: purchased Eurofins Pharma Discovery (KinaseProfiler); IC50 values by Reaction Biology Corp

[5] = test system: Molm-13 cells; experiment: CCK-8 cell viability assay; format: cell-based, human; conditions: CCK-8, 5 days
Method: (§1) Supplementary Figure 1. AIU2001 inhibited the proliferation of various cancer cells. (A and B) Human AML cells (Molm-13 and MV4-11; A) and human colorectal cancer (CRC) cells (HCT116/p53+/+ and HCT116/p53-/-; B) were treated with AIU2001 at the indicated concentrations for 5 days and viable cells were evaluated using the CCK-8 assay for AML cells and the MTT assay for CRC cells. *p < 0.05, **p < 0.01, ***p < 0.001 versus respective vehicle controls.
(§2) (also on this page, place not known: ca ncer fo r 02468 Cell viability (%) 0 1 Cell viability (%) *** *** ***) […]
(§3) Cell viability. Cytotoxicity assay of AML cells was performed using cell counting kit-8 (CCD-8; Dojindo, Japan) according to the manufacturer’s procedure. Briefly, MV4-11 or Molm-13 cells were plated in 96-well plates at a density of […] or 1 × 10^3 cells/well in triplicate, treated with AIU2001 or DMSO, and then incubated for 5 days. After adding the CCK-8 solution (10 μl) to each well and incubating the plates for 3 h, absorbance at 450 nm was measured using a microplate reader

[6] = test system: MV4-11 cells; experiment: CCK-8 cell viability assay; format: cell-based, human; conditions: CCK-8, 5 days
Method: as §1, §2, §3

[7] = target: T5, PKCα (Homo sapiens, UniProt P17252); experiment: Kinase profiling at 10 μM (Eurofins); format: biochemical; conditions: read-out: Inhibitory activity
T5 construct: purchased Eurofins Pharma Discovery (KinaseProfiler); IC50 values by Reaction Biology Corp

[8] = target: T6, EGFR(T790M,L858R) (Homo sapiens, UniProt P00533, L858R/T790M); experiment: Kinase profiling at 10 μM (Eurofins); format: biochemical; conditions: read-out: Inhibitory activity
T6 construct: purchased Eurofins Pharma Discovery (KinaseProfiler); IC50 values by Reaction Biology Corp

[9] = target: FLT3 (ITD) (Homo sapiens, UniProt P36888, ITD); experiment: In vitro kinase assay, IC50 (Reaction Biology Corp.); format: biochemical
[10] = target: T7, PI3 Kinase (p110a/p85a) (Homo sapiens, UniProt P42336); experiment: Kinase profiling at 10 μM (Eurofins); format: biochemical; conditions: read-out: Inhibitory activity
T7 construct: purchased Eurofins Pharma Discovery (KinaseProfiler); IC50 values by Reaction Biology Corp

[11] = test system: A549 cells; experiment: Immunoblot of cleaved caspase-3 and PARP-1; format: cell-based, human; conditions: 48 h
Method: (§4) Cell lysates were prepared by extracting proteins with TNN buffer (40 mM Tris-Cl pH 8.0, 0.2% NP-40, 120 mM NaCl) or radioimmunoprecipitation assay (RIPA) lysis buffer (Millipore, Billerica MA, USA) supplemented with a protease inhibitor cocktail (Thermo Fisher Scientific, Rockford, IL, USA). Equal amounts of proteins were separated using SDS-PAGE on 8–13% gels, and transferred to nitrocellulose membranes (Bio-Rad, Hercules, CA, USA). The membranes were blocked with 5% skim milk in Tris-buffered saline-Tween 20 (TBST) (150 mM NaCl, 10 mM Tris, 0.2% Tween20), followed by overnight incubation with primary antibodies at 4 °C. The blots were developed using peroxidase-conjugated secondary antibody and the immunoreactive proteins were visualized using enhanced chemiluminescence (ECL) reagents, according to the manufacturer’s recommendations (Amersham, GE Healthcare, Buckingamshire, UK). The protein bands were visualized using a digital imaging system (ImageQuant LAS 4000 mini; GE Healthcare, UK). The protein levels were analyzed using Image J software (National Institutes of Health, Bethesda, MD, USA). Experiments were repeated at least thrice.

[12] = test system: H1299 cells; experiment: Immunoblot of cleaved caspase-3 and PARP-1; format: cell-based, human; conditions: 48 h
Method: as §4

[13] = target: T8, WEE1 (Homo sapiens, UniProt P30291); experiment: Kinase profiling at 10 μM (Eurofins); format: biochemical; conditions: read-out: Inhibitory activity
T8 construct: purchased Eurofins Pharma Discovery (KinaseProfiler); IC50 values by Reaction Biology Corp

[14] = test system: CCD18-Lu cells; experiment: MTT cell viability assay; format: cell-based, human; conditions: CCD18-Lu lung fibroblast cells, five days
Method: (§5) Cell viability was assessed using the MTT colorimetric assay. Cells (1 × 10^3 cells/well) were seeded into 96-well plates and treated with the various concentrations of each compound or combination of two compounds. After five days of treatment, 10 μL MTT (0.5 mg/mL) was added, and further incubated for 3 h. After removal of the supernatant, the resultant pellet was dissolved in DMSO. The absorbance of the resultant formazan was measured at 540 nm using a plate reader (Multiskan EX; ThermoLabsystems, Waltham, MA, USA).

[15] = test system: BEAS2B cells; experiment: MTT cell viability assay; format: cell-based, human; conditions: BEAS2B normal bronchial epithelial cells, five days
Method: as §5

[16] = test system: H460 cells; experiment: MTT cell viability assay; format: cell-based, human; conditions: five days
Method: as §5

[17] = target: T9, FLT1 (Homo sapiens, UniProt P17948); experiment: Kinase profiling at 10 μM (Eurofins); format: biochemical; conditions: read-out: Inhibitory activity
T9 construct: purchased Eurofins Pharma Discovery (KinaseProfiler); IC50 values by Reaction Biology Corp

[18] = target: T10, Aurora-A (Homo sapiens, UniProt O14965); experiment: Kinase profiling at 10 μM (Eurofins); format: biochemical; conditions: read-out: Inhibitory activity
T10 construct: purchased Eurofins Pharma Discovery (KinaseProfiler); IC50 values by Reaction Biology Corp

[19] = target: T11, IGF-1R (Homo sapiens, UniProt P08069); experiment: Kinase profiling at 10 μM (Eurofins); format: biochemical; conditions: read-out: Inhibitory activity
T11 construct: purchased Eurofins Pharma Discovery (KinaseProfiler); IC50 values by Reaction Biology Corp

[20] = target: T12, ERBB4 (Homo sapiens, UniProt Q15303); experiment: Kinase profiling at 10 μM (Eurofins); format: biochemical; conditions: read-out: Inhibitory activity
T12 construct: purchased Eurofins Pharma Discovery (KinaseProfiler); IC50 values by Reaction Biology Corp

[21] = target: T13, IKKα (Homo sapiens, UniProt O15111); experiment: Kinase profiling at 10 μM (Eurofins); format: biochemical; conditions: read-out: Inhibitory activity
T13 construct: purchased Eurofins Pharma Discovery (KinaseProfiler); IC50 values by Reaction Biology Corp

[22] = target: T14, CHK1 (Homo sapiens, UniProt O14757); experiment: Kinase profiling at 10 μM (Eurofins); format: biochemical; conditions: read-out: Inhibitory activity
T14 construct: purchased Eurofins Pharma Discovery (KinaseProfiler); IC50 values by Reaction Biology Corp

[23] = target: T15, Abl (Homo sapiens, UniProt P00519); experiment: Kinase profiling at 10 μM (Eurofins); format: biochemical; conditions: read-out: Inhibitory activity
T15 construct: purchased Eurofins Pharma Discovery (KinaseProfiler); IC50 values by Reaction Biology Corp

[24] = target: T16, ROCK-I (Homo sapiens, UniProt Q13464); experiment: Kinase profiling at 10 μM (Eurofins); format: biochemical; conditions: read-out: Inhibitory activity
T16 construct: purchased Eurofins Pharma Discovery (KinaseProfiler); IC50 values by Reaction Biology Corp

[25] = target: T17, TrkA (Homo sapiens, UniProt P04629); experiment: Kinase profiling at 10 μM (Eurofins); format: biochemical; conditions: read-out: Inhibitory activity
T17 construct: purchased Eurofins Pharma Discovery (KinaseProfiler); IC50 values by Reaction Biology Corp

[26] = target: T18, CDK5/p35 (Homo sapiens, UniProt Q00535); experiment: Kinase profiling at 10 μM (Eurofins); format: biochemical; conditions: read-out: Inhibitory activity
T18 construct: purchased Eurofins Pharma Discovery (KinaseProfiler); IC50 values by Reaction Biology Corp

[27] = target: T19, ARK5 (Homo sapiens, UniProt O60285); experiment: Kinase profiling at 10 μM (Eurofins); format: biochemical; conditions: read-out: Inhibitory activity
T19 construct: purchased Eurofins Pharma Discovery (KinaseProfiler); IC50 values by Reaction Biology Corp
T19 sequence (O60285 whole entry): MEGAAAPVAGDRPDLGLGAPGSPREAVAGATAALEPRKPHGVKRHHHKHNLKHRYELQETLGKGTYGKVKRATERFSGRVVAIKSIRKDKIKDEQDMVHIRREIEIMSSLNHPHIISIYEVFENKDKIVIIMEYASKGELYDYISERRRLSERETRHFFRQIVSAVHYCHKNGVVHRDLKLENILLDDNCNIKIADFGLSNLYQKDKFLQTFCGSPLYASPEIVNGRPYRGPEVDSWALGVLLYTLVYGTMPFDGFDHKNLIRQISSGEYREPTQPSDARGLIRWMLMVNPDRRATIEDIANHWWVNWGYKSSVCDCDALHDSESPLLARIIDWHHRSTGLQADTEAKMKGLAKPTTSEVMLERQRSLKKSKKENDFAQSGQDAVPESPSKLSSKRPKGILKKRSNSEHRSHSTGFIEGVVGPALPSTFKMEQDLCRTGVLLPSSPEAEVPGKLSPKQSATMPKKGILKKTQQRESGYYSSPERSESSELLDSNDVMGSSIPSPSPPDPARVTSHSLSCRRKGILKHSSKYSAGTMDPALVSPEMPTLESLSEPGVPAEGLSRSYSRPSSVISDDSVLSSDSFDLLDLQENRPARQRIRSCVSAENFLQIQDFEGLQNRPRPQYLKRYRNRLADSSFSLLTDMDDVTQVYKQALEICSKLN

T10 sequence (O14965 whole entry): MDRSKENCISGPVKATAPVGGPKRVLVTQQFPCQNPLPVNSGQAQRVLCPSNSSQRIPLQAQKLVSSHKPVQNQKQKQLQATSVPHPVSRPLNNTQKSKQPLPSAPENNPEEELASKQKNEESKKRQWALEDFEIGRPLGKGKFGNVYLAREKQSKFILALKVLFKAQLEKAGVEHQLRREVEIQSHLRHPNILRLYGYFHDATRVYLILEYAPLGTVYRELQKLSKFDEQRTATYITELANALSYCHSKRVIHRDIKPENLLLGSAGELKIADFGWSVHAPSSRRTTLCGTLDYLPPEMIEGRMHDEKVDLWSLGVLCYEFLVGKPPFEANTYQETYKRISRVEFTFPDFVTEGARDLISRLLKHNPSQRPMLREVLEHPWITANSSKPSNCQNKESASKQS
T4 sequence (Q02750 whole entry): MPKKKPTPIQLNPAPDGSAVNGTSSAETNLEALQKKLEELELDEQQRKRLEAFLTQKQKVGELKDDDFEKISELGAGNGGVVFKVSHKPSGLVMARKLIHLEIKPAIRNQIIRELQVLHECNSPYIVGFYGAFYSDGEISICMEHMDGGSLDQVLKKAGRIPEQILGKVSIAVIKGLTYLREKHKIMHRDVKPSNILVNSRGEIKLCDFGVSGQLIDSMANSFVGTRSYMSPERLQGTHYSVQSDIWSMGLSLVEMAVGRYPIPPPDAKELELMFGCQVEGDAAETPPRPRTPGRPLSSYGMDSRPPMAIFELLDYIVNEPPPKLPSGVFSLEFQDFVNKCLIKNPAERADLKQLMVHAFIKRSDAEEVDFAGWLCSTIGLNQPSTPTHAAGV
T11 sequence (P08069 31-1367): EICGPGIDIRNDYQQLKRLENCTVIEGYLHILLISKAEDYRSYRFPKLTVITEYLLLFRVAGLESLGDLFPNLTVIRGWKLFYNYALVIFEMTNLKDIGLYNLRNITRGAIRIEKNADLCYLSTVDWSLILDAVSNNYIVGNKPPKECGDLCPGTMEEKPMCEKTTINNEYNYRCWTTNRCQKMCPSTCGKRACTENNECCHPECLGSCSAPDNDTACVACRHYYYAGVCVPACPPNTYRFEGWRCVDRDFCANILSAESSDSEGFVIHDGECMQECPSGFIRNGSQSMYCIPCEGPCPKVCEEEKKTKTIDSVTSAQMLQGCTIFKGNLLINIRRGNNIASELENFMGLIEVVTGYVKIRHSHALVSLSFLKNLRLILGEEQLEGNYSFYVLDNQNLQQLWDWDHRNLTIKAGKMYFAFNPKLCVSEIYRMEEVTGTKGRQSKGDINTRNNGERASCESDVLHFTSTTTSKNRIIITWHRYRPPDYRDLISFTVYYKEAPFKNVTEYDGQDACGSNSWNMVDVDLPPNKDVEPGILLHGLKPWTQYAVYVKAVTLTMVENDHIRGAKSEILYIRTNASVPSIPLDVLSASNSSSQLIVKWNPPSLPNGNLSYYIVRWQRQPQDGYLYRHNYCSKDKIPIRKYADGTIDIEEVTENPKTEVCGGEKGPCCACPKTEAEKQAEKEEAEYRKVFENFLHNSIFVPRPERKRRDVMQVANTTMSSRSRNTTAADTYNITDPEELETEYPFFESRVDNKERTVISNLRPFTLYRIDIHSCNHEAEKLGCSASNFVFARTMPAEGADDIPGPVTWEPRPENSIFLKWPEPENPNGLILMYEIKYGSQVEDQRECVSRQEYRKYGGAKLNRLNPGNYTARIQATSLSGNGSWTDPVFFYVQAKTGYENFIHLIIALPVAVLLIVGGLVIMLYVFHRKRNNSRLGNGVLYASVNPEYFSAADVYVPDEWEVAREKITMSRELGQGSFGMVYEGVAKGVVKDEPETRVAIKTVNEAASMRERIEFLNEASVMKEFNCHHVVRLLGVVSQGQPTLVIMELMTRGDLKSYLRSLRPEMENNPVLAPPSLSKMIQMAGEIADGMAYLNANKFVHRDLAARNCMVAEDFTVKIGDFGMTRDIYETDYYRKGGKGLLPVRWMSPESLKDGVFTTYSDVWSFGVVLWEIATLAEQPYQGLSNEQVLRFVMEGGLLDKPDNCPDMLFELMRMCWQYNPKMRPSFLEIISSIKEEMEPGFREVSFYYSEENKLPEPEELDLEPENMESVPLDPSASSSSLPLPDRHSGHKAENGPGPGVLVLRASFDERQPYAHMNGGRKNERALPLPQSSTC
T8 sequence (P30291 whole entry): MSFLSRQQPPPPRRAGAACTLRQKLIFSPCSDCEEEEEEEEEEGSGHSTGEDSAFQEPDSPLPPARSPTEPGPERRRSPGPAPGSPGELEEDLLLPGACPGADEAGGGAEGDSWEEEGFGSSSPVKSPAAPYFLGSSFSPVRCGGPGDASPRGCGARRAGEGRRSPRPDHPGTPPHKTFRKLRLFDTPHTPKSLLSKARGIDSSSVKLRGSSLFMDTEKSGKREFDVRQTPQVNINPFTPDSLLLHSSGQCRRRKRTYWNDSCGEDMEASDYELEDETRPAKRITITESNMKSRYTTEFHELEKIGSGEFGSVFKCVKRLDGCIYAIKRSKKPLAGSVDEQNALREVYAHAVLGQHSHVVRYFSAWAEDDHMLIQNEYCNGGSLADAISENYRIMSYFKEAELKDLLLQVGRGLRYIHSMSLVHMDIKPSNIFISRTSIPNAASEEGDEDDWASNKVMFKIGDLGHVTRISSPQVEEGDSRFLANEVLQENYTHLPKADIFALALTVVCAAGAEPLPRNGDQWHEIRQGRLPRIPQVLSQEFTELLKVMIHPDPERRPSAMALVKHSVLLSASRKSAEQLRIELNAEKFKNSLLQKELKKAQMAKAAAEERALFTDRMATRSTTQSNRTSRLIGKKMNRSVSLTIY
T13 sequence (O15111 whole entry): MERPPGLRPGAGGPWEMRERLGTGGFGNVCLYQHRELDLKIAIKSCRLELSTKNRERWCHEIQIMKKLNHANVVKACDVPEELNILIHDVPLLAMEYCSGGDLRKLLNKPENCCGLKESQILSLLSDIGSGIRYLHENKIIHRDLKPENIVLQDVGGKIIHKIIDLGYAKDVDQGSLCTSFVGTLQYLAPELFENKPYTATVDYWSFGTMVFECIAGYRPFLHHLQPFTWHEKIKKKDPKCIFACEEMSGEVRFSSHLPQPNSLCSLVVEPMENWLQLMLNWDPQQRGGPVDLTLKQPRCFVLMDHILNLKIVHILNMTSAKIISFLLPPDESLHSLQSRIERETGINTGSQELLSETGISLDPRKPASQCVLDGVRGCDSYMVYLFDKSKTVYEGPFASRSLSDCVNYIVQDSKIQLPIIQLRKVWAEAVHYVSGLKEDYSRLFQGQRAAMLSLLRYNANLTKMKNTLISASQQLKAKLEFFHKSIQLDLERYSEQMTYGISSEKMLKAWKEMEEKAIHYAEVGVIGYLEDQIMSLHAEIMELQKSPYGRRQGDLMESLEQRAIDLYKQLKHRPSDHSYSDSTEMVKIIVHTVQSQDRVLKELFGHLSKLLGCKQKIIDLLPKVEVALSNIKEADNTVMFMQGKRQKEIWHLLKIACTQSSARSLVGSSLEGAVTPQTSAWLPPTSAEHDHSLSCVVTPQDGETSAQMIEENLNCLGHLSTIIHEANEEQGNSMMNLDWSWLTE
T17 sequence (P04629 33-796): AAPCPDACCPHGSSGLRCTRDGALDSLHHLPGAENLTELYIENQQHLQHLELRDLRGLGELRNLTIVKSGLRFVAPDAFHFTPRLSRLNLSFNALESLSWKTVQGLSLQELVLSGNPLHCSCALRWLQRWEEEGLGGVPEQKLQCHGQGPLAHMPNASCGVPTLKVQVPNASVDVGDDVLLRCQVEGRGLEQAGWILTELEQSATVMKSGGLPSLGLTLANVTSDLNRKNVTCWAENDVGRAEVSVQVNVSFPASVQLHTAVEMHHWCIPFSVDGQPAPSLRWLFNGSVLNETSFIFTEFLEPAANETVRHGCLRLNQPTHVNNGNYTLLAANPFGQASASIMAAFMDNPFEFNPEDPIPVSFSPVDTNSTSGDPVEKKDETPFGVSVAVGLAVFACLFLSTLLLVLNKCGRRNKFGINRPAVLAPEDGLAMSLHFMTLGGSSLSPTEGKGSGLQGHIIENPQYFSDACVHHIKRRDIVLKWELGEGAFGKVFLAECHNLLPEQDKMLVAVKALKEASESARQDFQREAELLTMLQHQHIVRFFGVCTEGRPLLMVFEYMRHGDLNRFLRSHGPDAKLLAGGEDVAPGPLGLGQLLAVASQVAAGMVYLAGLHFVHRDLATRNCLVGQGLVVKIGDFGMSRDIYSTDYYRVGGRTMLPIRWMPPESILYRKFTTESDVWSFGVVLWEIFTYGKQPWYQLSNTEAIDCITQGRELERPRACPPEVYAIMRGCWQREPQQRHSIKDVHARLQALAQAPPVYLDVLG

`Brc1ccc(-c2cnc(Nc3cccc4ccccc34)o2)cc1` [AIU2001, 5-(4-bromophenyl)-N-(naphthalen-1-yl) oxazol-2-amine] showed an inhibition at 10 µM [1] of 10%, an inhibition at 10 µM [2] of 12% and an inhibition at 10 µM [3] of at least 75%. For the same compound, the inhibition at 10 µM [4] was 0%, the “Growth inhibition” value [5] was “inhibited the growth” and the “Growth inhibition” value [6] was “inhibited the growth”. The inhibition at 10 µM [7] was 9%, the inhibition at 10 µM [8] was 4% and the IC50 [9] was 63.2 nM. The inhibition at 10 µM [10] was 7%, the “Cleavage of caspase-3 and PARP-1” value [11] was “increased cleavage” and the “Cleavage of caspase-3 and PARP-1” value [12] was “increased cleavage”. The inhibition at 10 µM [13] was 8%, the “Growth inhibition” value [14] was “relatively less” and the “Growth inhibition” value [15] was “relatively less”. The “Growth inhibition” value [16] was “significantly inhibited the growth”, the inhibition at 10 µM [17] was 44% and the inhibition at 10 µM [18] was 28%. The inhibition at 10 µM [19] was 0%, the inhibition at 10 µM [20] was 1% and the inhibition at 10 µM [21] was 7%. It also gave an inhibition at 10 µM [22] of 0%, an inhibition at 10 µM [23] of 51% and an inhibition at 10 µM [24] of 0%. It also gave an inhibition at 10 µM [25] of 40%, an inhibition at 10 µM [26] of 58% and an inhibition at 10 µM [27] of 75%.
